In test [1] the target is Glycogen synthase kinase-3 beta (Homo sapiens, UniProt P49841). Put plainly: Selectivity interaction (Rxn Biology Kinase assay) EUB0001632a GSK3B. As to conditions: at 10 µM.
Test [2] addresses T1, NUAK family SNF1-like kinase 2 (Homo sapiens) (UniProt Q9H093).
T1 sequence (whole entry): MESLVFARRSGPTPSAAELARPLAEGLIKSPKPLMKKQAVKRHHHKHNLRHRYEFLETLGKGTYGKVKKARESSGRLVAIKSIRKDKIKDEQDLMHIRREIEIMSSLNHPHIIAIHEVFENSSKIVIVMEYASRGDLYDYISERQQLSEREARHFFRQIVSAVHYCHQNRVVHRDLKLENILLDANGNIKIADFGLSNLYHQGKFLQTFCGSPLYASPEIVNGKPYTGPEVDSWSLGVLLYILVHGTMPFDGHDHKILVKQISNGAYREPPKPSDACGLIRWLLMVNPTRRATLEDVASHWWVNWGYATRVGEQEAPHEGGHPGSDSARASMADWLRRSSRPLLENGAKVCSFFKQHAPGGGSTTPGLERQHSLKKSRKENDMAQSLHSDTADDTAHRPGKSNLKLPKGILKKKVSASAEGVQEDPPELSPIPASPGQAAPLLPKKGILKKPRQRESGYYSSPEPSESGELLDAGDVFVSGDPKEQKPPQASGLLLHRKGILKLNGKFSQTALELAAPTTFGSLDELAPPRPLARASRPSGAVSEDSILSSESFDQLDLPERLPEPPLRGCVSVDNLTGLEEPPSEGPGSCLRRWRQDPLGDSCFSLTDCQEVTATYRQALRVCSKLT
The test is described as follows: Selectivity interaction (LanthaScreen Eu Kinase Binding Assay) EUB0001632a NUAK2. As to conditions: at 10 µM. For orientation: In TR-FRET formats the signal depends on donor and acceptor labels being close together.

For test [3], the target named is T2, Protein-tyrosine kinase 6 (Homo sapiens, UniProt Q13882). The test is described as follows: Selectivity interaction (KinomeScan (DiscoverX)) EUB0001619a PTK6. The conditions noted are these: at 1 µM.
T2 sequence (Q13882 whole entry, looked up): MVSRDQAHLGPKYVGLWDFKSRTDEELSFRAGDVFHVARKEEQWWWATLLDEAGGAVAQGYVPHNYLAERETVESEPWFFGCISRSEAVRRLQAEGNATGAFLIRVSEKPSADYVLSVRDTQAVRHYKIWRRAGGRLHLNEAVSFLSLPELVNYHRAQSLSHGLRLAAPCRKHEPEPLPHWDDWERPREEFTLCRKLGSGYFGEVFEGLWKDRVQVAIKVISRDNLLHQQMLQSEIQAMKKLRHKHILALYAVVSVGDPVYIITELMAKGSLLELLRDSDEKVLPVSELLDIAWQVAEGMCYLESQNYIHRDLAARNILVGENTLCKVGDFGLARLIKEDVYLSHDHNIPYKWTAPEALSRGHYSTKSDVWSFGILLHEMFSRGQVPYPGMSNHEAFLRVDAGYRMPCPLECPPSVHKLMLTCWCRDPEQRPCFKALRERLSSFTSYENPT
For test [4], the target named is TRAF2 and NCK-interacting protein kinase (Homo sapiens) (UniProt Q9UKE5). The test is described as follows: Selectivity interaction (ActivX KiNativ screen (ex vivo kinase selectivity in human PBMCs)) EUB0001619a TNIK. Type of test: cell-based. As to conditions: PBMC, at 1 µM.
Chain of TRAF2 and NCK-interacting protein kinase (Homo sapiens) (Q9UKE5 whole entry, looked up): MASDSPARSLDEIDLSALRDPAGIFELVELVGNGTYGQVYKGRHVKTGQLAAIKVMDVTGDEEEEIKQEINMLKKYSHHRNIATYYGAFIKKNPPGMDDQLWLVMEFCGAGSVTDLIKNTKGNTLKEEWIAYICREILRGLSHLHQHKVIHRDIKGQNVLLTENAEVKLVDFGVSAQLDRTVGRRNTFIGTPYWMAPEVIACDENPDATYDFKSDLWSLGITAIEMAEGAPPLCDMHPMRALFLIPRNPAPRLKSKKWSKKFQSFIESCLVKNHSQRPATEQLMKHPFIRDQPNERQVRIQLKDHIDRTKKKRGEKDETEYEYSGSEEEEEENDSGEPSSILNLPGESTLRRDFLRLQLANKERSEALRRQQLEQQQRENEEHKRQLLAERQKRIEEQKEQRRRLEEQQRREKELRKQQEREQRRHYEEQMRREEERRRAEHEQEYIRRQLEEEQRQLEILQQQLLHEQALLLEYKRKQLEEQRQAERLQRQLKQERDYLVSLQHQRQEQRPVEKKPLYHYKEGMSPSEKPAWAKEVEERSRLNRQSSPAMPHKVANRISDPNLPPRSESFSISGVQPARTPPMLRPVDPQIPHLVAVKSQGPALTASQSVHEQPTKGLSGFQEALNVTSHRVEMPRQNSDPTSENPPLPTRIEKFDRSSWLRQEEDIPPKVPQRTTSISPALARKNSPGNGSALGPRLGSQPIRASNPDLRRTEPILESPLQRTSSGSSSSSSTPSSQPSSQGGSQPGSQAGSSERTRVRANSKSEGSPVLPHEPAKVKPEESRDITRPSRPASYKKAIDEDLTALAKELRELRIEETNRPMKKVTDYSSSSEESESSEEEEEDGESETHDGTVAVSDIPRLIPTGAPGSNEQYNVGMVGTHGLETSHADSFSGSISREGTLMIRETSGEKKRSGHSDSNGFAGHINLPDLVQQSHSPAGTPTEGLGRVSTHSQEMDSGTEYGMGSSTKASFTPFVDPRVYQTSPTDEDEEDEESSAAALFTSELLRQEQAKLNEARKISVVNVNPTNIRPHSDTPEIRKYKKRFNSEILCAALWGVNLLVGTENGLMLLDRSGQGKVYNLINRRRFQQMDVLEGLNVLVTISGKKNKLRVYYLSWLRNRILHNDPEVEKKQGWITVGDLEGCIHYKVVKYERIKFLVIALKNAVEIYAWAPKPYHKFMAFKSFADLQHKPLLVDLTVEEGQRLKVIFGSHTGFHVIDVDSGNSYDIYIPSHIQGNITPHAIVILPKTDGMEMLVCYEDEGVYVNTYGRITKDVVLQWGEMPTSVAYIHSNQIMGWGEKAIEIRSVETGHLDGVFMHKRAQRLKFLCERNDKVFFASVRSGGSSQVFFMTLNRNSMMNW
Test [5] deals with RAF proto-oncogene serine/threonine-protein kinase (Homo sapiens) (UniProt P04049). The conditions noted are these: at 10 µM.
In test [6] the target is Cyclin-dependent kinase 18 (Homo sapiens) (UniProt Q07002). Put plainly: Selectivity interaction (ActivX KiNativ screen (kinase selectivity in THP-1 cell lysates)) EUB0000639a CDK18. Type of test: subcellular. As to conditions: lysate, at 1 µM.
Chain of Cyclin-dependent kinase 18 (Homo sapiens) (Q07002 whole entry): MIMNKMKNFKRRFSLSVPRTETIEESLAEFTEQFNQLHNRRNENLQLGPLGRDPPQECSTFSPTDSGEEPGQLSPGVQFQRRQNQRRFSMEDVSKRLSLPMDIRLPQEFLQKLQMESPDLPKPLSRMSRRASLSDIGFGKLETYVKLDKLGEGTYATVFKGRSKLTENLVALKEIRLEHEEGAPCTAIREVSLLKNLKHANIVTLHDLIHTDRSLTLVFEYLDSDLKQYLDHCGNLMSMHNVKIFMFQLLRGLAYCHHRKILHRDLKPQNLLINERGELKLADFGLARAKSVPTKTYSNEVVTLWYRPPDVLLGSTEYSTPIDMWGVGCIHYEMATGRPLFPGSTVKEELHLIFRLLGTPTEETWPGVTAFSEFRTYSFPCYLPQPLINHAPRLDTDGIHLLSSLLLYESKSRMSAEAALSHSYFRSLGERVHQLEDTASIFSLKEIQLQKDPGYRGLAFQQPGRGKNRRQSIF
For test [7], the target named is Myosin light chain kinase 2, skeletal/cardiac muscle (Homo sapiens) (UniProt Q9H1R3). The test is described as follows: Selectivity interaction (Kinase panel (literature)) EUB0001199aCl MYLK2. As to conditions: at 1 µM.
Test [8] addresses Tyrosine-protein kinase HCK (Homo sapiens) (UniProt P08631). Put plainly: Selectivity interaction (Ambit KINOMEscan and KiNATiv profiling in Jurkat cells) EUB0000090b HCK. Type of test: cell-based. The conditions noted are these: at 1 µM.
The target of test [9] is Serine/threonine-protein kinase PAK 6 (Homo sapiens) (UniProt Q9NQU5). The test is described as follows: Selectivity interaction (KinomeScan (DiscoverX)) EUB0001049a PAK6. The conditions noted are these: at 1 µM.
Chain of Serine/threonine-protein kinase PAK 6 (Homo sapiens) (Q9NQU5 whole entry, looked up): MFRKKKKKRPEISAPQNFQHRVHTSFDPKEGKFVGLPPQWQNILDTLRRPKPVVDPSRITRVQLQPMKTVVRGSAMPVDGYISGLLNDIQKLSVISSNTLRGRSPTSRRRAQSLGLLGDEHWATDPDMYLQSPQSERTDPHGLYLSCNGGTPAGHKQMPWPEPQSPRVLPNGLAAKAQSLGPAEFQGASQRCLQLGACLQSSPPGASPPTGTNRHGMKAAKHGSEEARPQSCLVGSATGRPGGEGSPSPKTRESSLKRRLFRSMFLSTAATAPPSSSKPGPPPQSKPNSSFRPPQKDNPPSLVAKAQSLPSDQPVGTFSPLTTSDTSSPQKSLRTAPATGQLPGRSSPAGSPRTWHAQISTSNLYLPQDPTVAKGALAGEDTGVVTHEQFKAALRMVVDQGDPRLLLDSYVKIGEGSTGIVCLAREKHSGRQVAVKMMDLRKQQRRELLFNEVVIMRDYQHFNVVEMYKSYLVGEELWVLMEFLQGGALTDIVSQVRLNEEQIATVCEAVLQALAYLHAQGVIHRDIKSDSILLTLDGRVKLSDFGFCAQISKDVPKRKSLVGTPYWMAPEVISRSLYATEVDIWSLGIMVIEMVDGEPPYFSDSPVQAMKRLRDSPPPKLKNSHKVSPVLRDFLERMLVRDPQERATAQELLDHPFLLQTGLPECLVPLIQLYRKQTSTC
Test [10] concerns the target Tyrosine-protein kinase Srms (Homo sapiens) (UniProt Q9H3Y6). The test is described as follows: Selectivity interaction (KinomeScan (DiscoverX)) EUB0000618a SRMS. The conditions noted are these: at 10 µM.
In test [11] the target is Tyrosine-protein kinase receptor Tie-1 (Homo sapiens) (UniProt P35590). Put plainly: Selectivity interaction (KinomeScan (DiscoverX)) EUB0000618a TIE1. The conditions noted are these: at 10 µM.
Test [12] has as its target T2, Protein-tyrosine kinase 6. The test is described as follows: Selectivity interaction (KinomeScan (DiscoverX)) EUB0000092b PTK6. The conditions noted are these: at 10 µM.
Test [13] has as its target Histone-lysine N-methyltransferase, H3 lysine-36 specific (Homo sapiens) (UniProt Q96L73). The test is described as follows: Selectivity interaction (Methyltransferase screen (radiometric assays, panel of 8 PRMTs, 21 protein lysine methyltransferases, 3 DNA methyltransferases, and one RNA methyltransferase)) EUB0000271b NSD1. As to conditions: at 10 µM.
Test [14] concerns the target Mitogen-activated protein kinase 11 (Homo sapiens) (UniProt Q15759). Put plainly: Selectivity interaction (KinomeScan (DiscoverX)) EUB0001079a MAPK11. The conditions noted are these: at 1 µM.
Test [15] concerns the target T3, Tyrosine-protein kinase receptor TYRO3 (Homo sapiens) (UniProt Q06418).
T3 sequence (whole entry): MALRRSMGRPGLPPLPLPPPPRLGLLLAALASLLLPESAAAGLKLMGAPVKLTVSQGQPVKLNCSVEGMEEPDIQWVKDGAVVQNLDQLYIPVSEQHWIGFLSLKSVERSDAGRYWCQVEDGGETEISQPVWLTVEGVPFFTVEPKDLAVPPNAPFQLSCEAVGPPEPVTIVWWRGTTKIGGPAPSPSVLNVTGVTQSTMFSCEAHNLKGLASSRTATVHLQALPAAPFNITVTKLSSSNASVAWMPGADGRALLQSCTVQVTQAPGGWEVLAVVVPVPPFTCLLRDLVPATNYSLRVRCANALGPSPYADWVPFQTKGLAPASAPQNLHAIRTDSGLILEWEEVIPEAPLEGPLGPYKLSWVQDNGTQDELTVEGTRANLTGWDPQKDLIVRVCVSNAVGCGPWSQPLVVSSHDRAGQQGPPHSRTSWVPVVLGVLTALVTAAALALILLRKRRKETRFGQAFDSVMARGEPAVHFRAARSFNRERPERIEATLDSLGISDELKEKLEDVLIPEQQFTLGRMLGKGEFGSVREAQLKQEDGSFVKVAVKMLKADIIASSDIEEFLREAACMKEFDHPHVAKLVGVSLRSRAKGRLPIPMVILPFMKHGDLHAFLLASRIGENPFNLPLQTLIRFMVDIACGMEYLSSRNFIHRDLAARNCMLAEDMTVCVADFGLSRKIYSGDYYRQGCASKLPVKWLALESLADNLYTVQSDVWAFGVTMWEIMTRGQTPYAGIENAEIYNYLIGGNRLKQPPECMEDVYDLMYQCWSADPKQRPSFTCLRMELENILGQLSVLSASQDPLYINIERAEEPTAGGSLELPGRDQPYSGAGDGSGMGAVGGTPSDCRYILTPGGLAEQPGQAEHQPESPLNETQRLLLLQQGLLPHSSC
Put plainly: Selectivity interaction (KinomeScan (DiscoverX)) EUB0000229b TYRO3. As to conditions: at 10 µM.

SMILES strings stand for the structures.

Chain of Tyrosine-protein kinase HCK (Homo sapiens) (P08631 2-526 limits assumed): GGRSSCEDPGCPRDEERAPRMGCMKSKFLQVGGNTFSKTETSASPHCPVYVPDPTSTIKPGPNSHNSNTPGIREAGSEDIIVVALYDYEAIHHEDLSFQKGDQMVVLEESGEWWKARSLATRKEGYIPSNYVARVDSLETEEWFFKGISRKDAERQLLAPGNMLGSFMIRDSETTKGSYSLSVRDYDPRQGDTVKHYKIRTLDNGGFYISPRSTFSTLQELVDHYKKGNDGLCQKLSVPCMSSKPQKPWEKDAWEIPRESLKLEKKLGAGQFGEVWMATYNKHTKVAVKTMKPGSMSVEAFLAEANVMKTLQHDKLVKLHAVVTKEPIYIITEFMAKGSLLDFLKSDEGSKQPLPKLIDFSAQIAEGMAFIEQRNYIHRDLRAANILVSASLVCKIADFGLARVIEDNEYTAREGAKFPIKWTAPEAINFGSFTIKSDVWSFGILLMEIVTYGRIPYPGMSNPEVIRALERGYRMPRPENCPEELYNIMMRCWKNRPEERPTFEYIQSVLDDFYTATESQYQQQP
Chain of Tyrosine-protein kinase Srms (Homo sapiens) (Q9H3Y6 whole entry): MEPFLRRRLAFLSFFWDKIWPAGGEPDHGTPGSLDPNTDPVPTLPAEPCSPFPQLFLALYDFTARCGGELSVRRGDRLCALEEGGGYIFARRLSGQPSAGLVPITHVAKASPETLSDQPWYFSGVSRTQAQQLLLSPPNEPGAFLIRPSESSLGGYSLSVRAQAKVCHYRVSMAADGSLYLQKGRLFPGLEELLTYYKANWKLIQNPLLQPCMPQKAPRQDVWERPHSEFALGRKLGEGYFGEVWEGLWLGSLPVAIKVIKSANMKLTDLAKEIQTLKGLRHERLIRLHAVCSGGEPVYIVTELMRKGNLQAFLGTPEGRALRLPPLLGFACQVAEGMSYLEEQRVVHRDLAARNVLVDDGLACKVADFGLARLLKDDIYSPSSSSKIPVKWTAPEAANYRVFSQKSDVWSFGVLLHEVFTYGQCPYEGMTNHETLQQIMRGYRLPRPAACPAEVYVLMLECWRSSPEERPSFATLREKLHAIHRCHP
Chain of Mitogen-activated protein kinase 11 (Homo sapiens) (Q15759 whole entry): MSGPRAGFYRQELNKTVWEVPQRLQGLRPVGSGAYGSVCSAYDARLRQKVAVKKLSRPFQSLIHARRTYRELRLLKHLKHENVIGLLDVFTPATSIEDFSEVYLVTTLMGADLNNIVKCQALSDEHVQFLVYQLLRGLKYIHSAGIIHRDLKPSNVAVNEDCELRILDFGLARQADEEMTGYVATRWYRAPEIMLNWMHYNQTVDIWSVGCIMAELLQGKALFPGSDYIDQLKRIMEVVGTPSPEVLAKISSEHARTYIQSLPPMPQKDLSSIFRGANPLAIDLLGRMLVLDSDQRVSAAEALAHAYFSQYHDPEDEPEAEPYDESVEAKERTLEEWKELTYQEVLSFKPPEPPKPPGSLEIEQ
Chain of Glycogen synthase kinase-3 beta (P49841 whole entry, looked up): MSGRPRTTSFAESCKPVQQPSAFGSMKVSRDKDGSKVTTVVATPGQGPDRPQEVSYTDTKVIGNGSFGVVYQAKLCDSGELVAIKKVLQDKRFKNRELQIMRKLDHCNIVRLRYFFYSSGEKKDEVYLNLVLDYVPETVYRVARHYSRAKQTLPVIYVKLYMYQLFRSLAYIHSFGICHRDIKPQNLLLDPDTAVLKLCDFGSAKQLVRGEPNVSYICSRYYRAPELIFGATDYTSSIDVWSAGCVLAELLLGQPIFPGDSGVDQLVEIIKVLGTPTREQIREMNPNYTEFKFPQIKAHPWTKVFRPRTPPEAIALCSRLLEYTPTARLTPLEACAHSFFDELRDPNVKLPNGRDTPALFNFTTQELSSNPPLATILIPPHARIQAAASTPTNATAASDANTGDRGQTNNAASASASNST

On to `Cn1cc(-n2cnc3c(NCc4nc5cc(Cl)c(Cl)cc5[nH]4)nc(N4CCOCC4)nc32)cn1`, for which the % of inhibition in [1] was 96.5%; in test [2], -12.8%.

Consider `N#Cc1cccc(-c2c[nH]c3ncnc(N4CCOCC4)c23)c1`, for which the % of control in test [3] is 72%. For the same molecule, in test [4], the % of inhibition worked out at 29%.

With `Cc1cc([C@@H](C)Nc2ccccc2C(=O)O)c2nc(N3CCOCC3)cc(=O)n2c1` [AZD-6482], in [5], the % of control was found to be 100%.

`CC[C@@H]1[C@H](F)C(=O)N[C@@H]1COc1nccc2cc(C(N)=O)c(OC)cc12` [ZIMLOVISERTIB]: the % of inhibition in [6] was 3.9%.

As to `CN1Cc2nccc(-c3cn(C)nc3-c3ccc(F)cc3)c2C1=O`, the % of inhibition in [7] was found to be 5%.

In turn, `CN(C)C/C=C/C(=O)Nc1ccc(C(=O)N2CCCC(Nc3ncc(Cl)c(-c4c[nH]c5ccccc45)n3)C2)cc1` (stereo not given) displayed a % of control in test [8] of 83%.

Turning to `COc1cc(Nc2nc(C)cc(-c3cnn4nc(OC)ccc34)n2)cc(C(F)(F)F)c1`, in [9], the % of control was 75%.

For the molecule `O[C@H]1CC[C@H](Nc2ncc3nc(Nc4c(F)cc(F)cc4F)n([C@H]4CCOC4)c3n2)CC1`, the % of control was found to be 89% in test [10] and 100% in test [11].

For the molecule `CCC(=O)N1CCN(c2ccc(-n3c(=O)ccc4cnc5ccc(-c6cnc7ccccc7c6)cc5c43)cc2C(F)(F)F)CC1`, the % of control in [12] was 51%.

With `Cc1cc(C)cc([C@@H]2c3cc(C)ccc3NC(=O)CN2C(=O)c2ccc(Br)s2)c1`, the % of activity in test [13] came out at 105%.

In the case of `Nc1cnc(N2CCc3cc(S(=O)(=O)Nc4c(F)cc(Cl)cc4F)cc(N4CCCC4=O)c32)nc1` [TP-020n], the % of control in test [14] was 100%.

In test [15], `COc1cc(N(C)c2ccnc3ccc(C(F)(F)F)cc23)cc(OC)c1OC` returned a % binding of 80%.

Values taken from ChEMBL document CHEMBL5465560, “Selectivity Literature for EUbOPEN Chemogenomic Library” (2024).
